The values below are quoted from earlier work in article PMC3065210 (Inorganic Chemistry, 2011).

Read-outs that look alike come from different tables or passages of the source.

Experiment in data set [1]: not given
The source holds these as a separate data set.

On to `O=C([O-])CN1CCCN2CCN(CCCN(CC(=O)[O-])CC2)CC1.[Cu+2]` [Cu-CB-TE2A], for which the acid inertness half-life result (5 M HCl, 90 °C) was “more than 6 d”.

Regarding `C1CNCCN2CCNCCN(C1)CC2.[Cu+2]` [Cu-CB-homocyclen], the acid inertness half-life (1 M HCl, 30 °C) is 4.8 h.

With `O=C([O-])CN1CCN2CCN(CC1)CCN(CC(=O)[O-])CC2.[64Cu+2]` [^64Cu-CB-DO2A], the “accumulation in the liver” value in data set [1] (24 h p.i., previously published data (text says mice)) is given as 0.024 ± 0.002 %ID/g. In addition, the activity in blood in data set [1] (rats, 24 h, previously published data) is given as 0.011 ± 0.004 %ID/g. Moreover, the “tissue associated radioactivity in kidneys” value in data set [1] (rats, 24 h p.i., previously published data) was 0.064 ± 0.007 %ID/g. The “liver clearance (percent reduction)” value in data set [1] (rats, at 22 or 24 h PI, from published data) was 69.5%. The kidney clearance in data set [1] (rats, out to 22 or 24 h PI, from published data) is listed as 95.6%.
